Results on four compounds are retold here after paper PMC4601027, “Structural Analysis of the Pin1-CPEB1 interaction and its potential role in CPEB1 degradation” (Scientific Reports, 2015).

Non-standard residues stand in square brackets, D forms with d. Residues, ends and D or L forms follow the SMILES beside them. pS = N[C@@H](COP(=O)(O)O)C(=O)O

The target in test [1] is T1, Pin1 WW domain (Uniprot: Q13526, Residues: 1–41) (Homo sapiens, UniProt Q13526).
T1 construct: The Pin1 WW domain (Uniprot: Q13526, Residues: 1–41); His6 (N); GST (N); made in house
In words: ITC titration of CPEB1 phosphopeptides with Pin1 WW domain. Particulars: nano ITC calorimeter, 12 °C or 25 °C, 20 mM Tris-HCl pH 7.0, 130 mM NaCl, single binding site model, repeated at least twice. An excerpt:
(§1) Pin1 interacts with phosphorylated CPEB1 in Xenopus oocytes, as well as in mammalian cells. […] Therefore, to mimic the in vivo scenario, we measured the affinities of the interactions between recombinant proteins (the isolated WW domain and also the full-length protein) with several peptides containing the phosphorylation sites within CPEB1. These peptides were synthesized using Fmoc Solid-Phase Peptide Synthesis (SPPS) (Supplementary Fig 2). […] All affinities were found in the low μM range (Fig. 2a,b), with the exception of the pS423 site of CPEB1, located in the linker region between the RRM domains, whose affinity was considerably lower than the rest. Our results reveal that the peptides containing pS184 and pS210—the latter known to be essential for CPEB degradation—display the best affinities for Pin1 in vitro. The affinity of the phosphorylation-dependent interaction was about 10-fold higher than that of the unphosphorylated CPEB N-terminal counterparts. In addition, in most of the peptides examined, similar binding affinities and stoichiometries (1:1) were observed using either the full-length Pin1 protein or the truncated WW domain. Only when analyzing the interaction of CPEB1 pS210 and the full-length Pin1 protein we obtained a stoichiometry below 1 (n = 0.85), which cannot be attributed to systematic errors in the determination of the protein concentration. This discrepancy might indicate that in addition to the main complex consisting of a 1:1 protein/peptide ratio, a small population with a 1:2 stoichiometry is also present in solution.
ITC measurements were performed using a nano ITC calorimeter (TA Instruments) at 12 °C or 25 °C. Protein samples were prepared in 20 mM Tris-HCl pH 7.0 and 130 mM NaCl. All samples were degassed and centrifuged prior to the experiments. Protein concentration was measured in a NanoDrop™ 2000 measuring the UV absorption at 280 nm. Peptide concentration was determined by amino acid analysis. […]

For the next test, the target named is T2, Pin1 full-length (Homo sapiens, UniProt Q13526).
T2 construct: The full-length Pin1 clone was obtained from Addgene; His6 (N); provided by Dustin Maly's Lab
The test can be described thus: ITC titration of CPEB1 phosphopeptides with Pin1 full-length. It is filed as binding. Particulars: for Kd: nano ITC calorimeter, 12 °C or 25 °C, 20 mM Tris-HCl pH 7.0, 130 mM NaCl, repeated at least twice, for pS210 one Pin1 molecule could interact with two peptides, read-out: Pin1 FL KD.
Text: as §1
ITC measurements were performed using a nano ITC calorimeter (TA Instruments) at 12 °C or 25 °C. Protein samples were prepared in 20 mM Tris-HCl pH 7.0 and 130 mM NaCl. All samples were degassed and centrifuged prior to the experiments. Protein concentration was measured in a NanoDrop™ 2000 measuring the UV absorption at 280 nm. Peptide concentration was determined by amino acid analysis. Depending on the expected affinity, sigmoidal curves were optimized by injecting 10- to 15-fold concentrated peptide in 16 × 3 μL steps in a cell containing 190 μL of protein at an adjusted concentration of between 150 and 200 μM , stirring at 200 revolutions per minute (rpm). The delay between injections was set to be of 3 minutes. The NanoAnalyze software (TA Instruments) was used to determine the binding isotherms, assuming a single binding site in each molecule (except for the Pin1 full-length interaction with the CPEB1 pS210 peptide, where one Pin1 molecule could interact with two peptides). Baseline controls were acquired with buffer and pure peptide solutions. Measurements were repeated at least twice.

T1 sequence (Q13526 1-41): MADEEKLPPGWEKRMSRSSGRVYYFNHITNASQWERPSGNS
T2 sequence (Q13526 whole entry): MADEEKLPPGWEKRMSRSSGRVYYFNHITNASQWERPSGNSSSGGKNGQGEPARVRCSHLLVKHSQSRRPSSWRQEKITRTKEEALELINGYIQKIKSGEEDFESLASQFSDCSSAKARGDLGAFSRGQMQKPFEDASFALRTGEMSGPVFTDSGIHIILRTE

As for `CC(=O)N[C@@H](C)C(=O)N[C@@H](C)C(=O)N[C@H](C(=O)N[C@H](C(=O)N[C@@H](COP(=O)(O)O)C(=O)N1CCC[C@H]1C(=O)N[C@@H](CC(C)C)C(=O)NCC(N)=O)C(C)C)[C@@H](C)O` [CPEB1 pS248] (Ac-AATV[pS]PLG-NH2; N-terminus assumed), the Kd in test [1] was 47.6 ± 7.6 µM; on Pin1 full-length, 42.4 ± 8.7 µM. For the compound `CC(=O)NCC(=O)N[C@@H](CCCCN)C(=O)N1CCC[C@H]1C(=O)N[C@@H](COP(=O)(O)O)C(=O)N1CCC[C@H]1C(=O)N[C@@H](CC(C)C)C(=O)NCC(=O)N[C@@H](Cc1ccccc1)C(=O)N[C@@H](CC(C)C)C(=O)N[C@H](C(N)=O)[C@@H](C)O` [CPEB1 pS144] (Ac-GKP[pS]PLGFLT-NH2; N-terminus assumed), the figures for the dissociation constant Kd (in test [1]; at Pin1 full-length) were 75.4 ± 12.7 µM and 83.5 ± 11.5 µM, respectively. For `CC[C@H](C)[C@H](NC(=O)[C@H](CCCNC(=N)N)NC(=O)[C@H](CC(C)C)NC(C)=O)C(=O)N[C@@H](COP(=O)(O)O)C(=O)N1CCC[C@H]1C(=O)N1CCC[C@H]1C(=O)N[C@@H](CC(C)C)C(=O)N[C@@H](Cc1c[nH]cn1)C(=O)N[C@@H](Cc1ccccc1)C(=O)N[C@@H](CC(C)C)C(=O)N1CCC[C@H]1C(=O)N[C@@H](CC(C)C)C(=O)NCC(=O)NCC(N)=O` [CPEB1 pS210] (Ac-LRI[pS]PPLHFLPLGG-NH2; N-terminus assumed), the “stoichiometry (n), full-length Pin1” value on Pin1 full-length (protein/peptide stoichiometry) is listed as 0.85. `CSCC[C@H](NC(=O)[C@H](CO)NC(C)=O)C(=O)N[C@@H](CC(C)C)C(=O)N[C@@H](CC(N)=O)C(=O)N[C@@H](COP(=O)(O)O)C(=O)N1CCC[C@H]1C(=O)N[C@@H](CCSC)C(=O)NCC(=O)N[C@@H](CCCCN)C(N)=O` [CPEB1 pS138] (Ac-SMLN[pS]PMGK-NH2; N-terminus assumed): the Kd in test [1] was found to be 71.3 ± 9.3 µM; at Pin1 full-length, 84.3 ± 10.6 µM.
